Converted amounts (≈) assume the structure as drawn. The source made the active and inactive calls. The rule behind the calls is not given here.
What was measured:
Pseudomonas aeruginosa [1] = assay: Antibacterial activity against Pseudomonas aeruginosa MTCC 7952 after 24 hrs by serial dilution method; format: functional; conditions: for MIC: Pseudomonas aeruginosa, MTCC 7952, 24 h
Bacillus subtilis [2] = system: Bacillus subtilis
Pseudomonas aeruginosa [3] = assay: Antibacterial activity against Pseudomonas aeruginosa MTCC 7952 after 24 hrs by serial dilution method relative to 11,12-Diphenyl-11a,12-dihydro-11H-indeno[2,1-c][1,5]benzothiazepine; format: functional
Staphylococcus aureus [4] = assay: Antibacterial activity against Staphylococcus aureus MTCC 7443 after 24 hrs by serial dilution method; format: functional; conditions: for MIC: Staphylococcus aureus, MTCC 7443, 24 h
Escherichia coli [5] = assay: Antibacterial activity against Escherichia coli MTCC 42 after 24 hrs by serial dilution method; format: functional; conditions: for MIC: Escherichia coli, MTCC 42, 24 h
Bacillus subtilis [6] = assay: microbe, parasite or virus in culture; conditions: MTCC 441, 24 h
Staphylococcus aureus [7] = assay: Antibacterial activity against Staphylococcus aureus MTCC 7443 after 24 hrs by serial dilution method relative to 11,12-Diphenyl-11a,12-dihydro-11H-indeno[2,1-c][1,5]benzothiazepine; format: functional
Bacillus subtilis [8] = assay: Antibacterial activity against Bacillus subtilis MTCC 441 after 24 hrs by serial dilution method relative to 11,12-Diphenyl-11a,12-dihydro-11H-indeno[2,1-c][1,5]benzothiazepine; format: functional
[9] = Octanol-water partition coefficient, log P of the compound; format: physicochemical
Escherichia coli [10] = assay: Antibacterial activity against Escherichia coli MTCC 42 after 24 hrs by serial dilution method relative to 11,12-Diphenyl-11a,12-dihydro-11H-indeno[2,1-c][1,5]benzothiazepine; format: functional
Aspergillus fumigatus [11] = assay: Antifungal activity against Aspergillus fumigatus MTCC 2550 after 72 hrs by serial dilution method; format: functional; conditions: for MIC: Aspergillus fumigatus, MTCC 2550, 72 h
Candida albicans [12] = assay: Antifungal activity against Candida albicans MTCC 183 after 72 hrs by serial dilution method relative to 11,12-Diphenyl-11a,12-dihydro-11H-indeno[2,1-c][1,5]benzothiazepine; format: functional
Candida albicans [13] = assay: Antifungal activity against Candida albicans MTCC 183 after 72 hrs by serial dilution method; format: functional; conditions: for MIC: Candida albicans, MTCC 183, 72 h
Aspergillus fumigatus [14] = assay: Antifungal activity against Aspergillus fumigatus MTCC 2550 after 72 hrs by serial dilution method relative to 11,12-Diphenyl-11a,12-dihydro-11H-indeno[2,1-c][1,5]benzothiazepine; format: functional

Structure (SMILES)	-logMIC (Pseudomonas aeruginosa [1])	MIC (Pseudomonas aeruginosa [1]) [µM]	-logMIC (Bacillus subtilis [2])	Activity (Pseudomonas aeruginosa [3]) [%]	-logMIC (Staphylococcus aureus [4])	MIC (Staphylococcus aureus [4]) [µM]	-logMIC (Escherichia coli [5])	MIC (Escherichia coli [5]) [µM]	MIC (Bacillus subtilis [6]) [µM]	Activity (Staphylococcus aureus [7]) [%]	Activity (Bacillus subtilis [8]) [%]	logP [9]	Activity (Escherichia coli [10]) [%]	-logMIC (Aspergillus fumigatus [11])	MIC (Aspergillus fumigatus [11]) [µM]	Activity (Candida albicans [12]) [%]	-logMIC (Candida albicans [13])	MIC (Candida albicans [13]) [µM]	Activity (Aspergillus fumigatus [14]) [%]	other results
COc1ccc2c(c1)SC(c1ccccc1)C1C(=N2)c2ccccc2C1c1ccccc1 (stereo not given)	1.24	57.6 (≈ 25 µg/mL)	1.24	6.94	1.84	14.4 (≈ 6.24 µg/mL)	1.54	28.8 (≈ 12.5 µg/mL)	57.6 (≈ 25 µg/mL)	76.73	6.94	6.71	76.75	1.24	57.6 (≈ 25 µg/mL)	-86.26	0.94	115 (≈ 50 µg/mL)	53.51	–
COc1ccc2c(c1)SC(c1ccc(C)cc1)C1C(=N2)c2ccccc2C1c1ccccc1 (stereo not given)	2.16	6.9 (≈ 3.09 µg/mL)	0.95	88.85	1.86	13.9 (≈ 6.22 µg/mL)	1.55	27.9 (≈ 12.5 µg/mL)	112 (≈ 50 µg/mL)	77.54	-80.45	7.18	77.48	1.25	55.8 (≈ 25 µg/mL)	54.92	1.55	27.9 (≈ 12.5 µg/mL)	54.96	–
COc1ccc(C2Sc3ccccc3N=C3c4ccccc4C(c4ccccc4)C32)cc1 (stereo not given)	–	–	0.94	–	–	–	0.94	115 (≈ 50 µg/mL)	115 (≈ 50 µg/mL)	–	-86.26	7.95	6.94	1.24	57.6 (≈ 25 µg/mL)	-86.26	0.94	115 (≈ 50 µg/mL)	53.51	Activity (Pseudomonas aeruginosa [1]): inactive; Activity (Staphylococcus aureus [4]): inactive
CC1(C)S[C@@H]2[C@H](NC(=O)Cc3ccccc3)C(=O)N2[C@H]1C(=O)O [PENICILLIN G]	–	18.7 (≈ 6.25 µg/mL)	–	–	–	4.6 (≈ 1.54 µg/mL)	–	37.4 (≈ 12.5 µg/mL)	4.6 (≈ 1.54 µg/mL)	–	–	–	–	–	–	–	–	–	–	–
COc1ccc(C2Sc3cc(C)ccc3N=C3c4ccccc4C(c4ccccc4)C32)cc1 (stereo not given)	1.25	55.8 (≈ 25 µg/mL)	1.25	9.85	1.55	27.9 (≈ 12.5 µg/mL)	0.95	112 (≈ 50 µg/mL)	55.8 (≈ 25 µg/mL)	54.92	9.85	7.18	9.84	0.95	112 (≈ 50 µg/mL)	-80.45	0.95	112 (≈ 50 µg/mL)	9.84	–
Cc1ccc(C2Sc3cc(C)ccc3N=C3c4ccccc4C(c4ccccc4)C32)cc1 (stereo not given)	0.94	116 (≈ 50 µg/mL)	1.54	-87.07	1.54	28.9 (≈ 12.5 µg/mL)	1.24	57.9 (≈ 25 µg/mL)	28.9 (≈ 12.5 µg/mL)	53.31	53.31	7.9	53.26	0.94	116 (≈ 50 µg/mL)	-87.1	0.94	116 (≈ 50 µg/mL)	6.53	–
Cc1ccc(C2Sc3ccccc3N=C3c4ccccc4C(c4ccccc4)C32)cc1 (stereo not given)	–	–	1.22	–	0.92	120 (≈ 50 µg/mL)	0.92	120 (≈ 50 µg/mL)	59.8 (≈ 25 µg/mL)	-93.37	3.39	7.43	3.38	–	–	–	–	–	–	Activity (Pseudomonas aeruginosa [1]): inactive; Activity (Aspergillus fumigatus [11]): inactive; Activity (Candida albicans [13]): inactive
Cc1ccc2c(c1)SC(c1ccccc1)C1C(=N2)c2ccccc2C1c1ccccc1 (stereo not given)	1.52	29.9 (≈ 12.5 µg/mL)	0.92	51.69	0.92	120 (≈ 50 µg/mL)	–	–	120 (≈ 50 µg/mL)	-93.37	-93.37	7.43	–	1.22	59.8 (≈ 25 µg/mL)	3.39	1.22	59.8 (≈ 25 µg/mL)	51.73	–
c1ccc(C2Sc3ccccc3N=C3c4ccccc4C(c4ccccc4)C32)cc1 (stereo not given)	1.21	61.9 (≈ 25 µg/mL)	1.21	–	1.21	61.9 (≈ 25 µg/mL)	0.91	124 (≈ 50 µg/mL)	61.9 (≈ 25 µg/mL)	–	–	6.96	–	0.91	124 (≈ 50 µg/mL)	–	1.21	61.9 (≈ 25 µg/mL)	–	–
Cc1ccc2c(c1)SC(c1ccc(Cl)cc1)C1C(=N2)c2ccccc2C1c1ccccc1 (stereo not given)	1.56	27.6 (≈ 12.5 µg/mL)	0.96	55.41	–	–	1.56	27.6 (≈ 12.5 µg/mL)	111 (≈ 50 µg/mL)	–	-78.67	7.95	77.72	1.26	55.3 (≈ 25 µg/mL)	10.66	1.26	55.3 (≈ 25 µg/mL)	55.36	Activity (Staphylococcus aureus [4]): inactive
Clc1ccc(C2Sc3ccccc3N=C3c4ccccc4C(c4ccccc4)C32)cc1 (stereo not given)	0.94	114 (≈ 50 µg/mL)	2.15	-84.32	1.55	28.5 (≈ 12.5 µg/mL)	1.24	57 (≈ 25 µg/mL)	7.1 (≈ 3.11 µg/mL)	53.95	88.52	7.48	53.99	1.24	57 (≈ 25 µg/mL)	-84.32	0.94	114 (≈ 50 µg/mL)	53.99	–
Cc1ccc(C2Sc3cc(Cl)ccc3N=C3c4ccccc4C(c4ccccc4)C32)cc1 (stereo not given)	1.56	27.6 (≈ 12.5 µg/mL)	1.56	55.41	2.16	6.9 (≈ 3.12 µg/mL)	1.86	13.8 (≈ 6.24 µg/mL)	27.6 (≈ 12.5 µg/mL)	88.85	55.41	7.95	88.86	1.56	27.6 (≈ 12.5 µg/mL)	55.41	1.56	27.6 (≈ 12.5 µg/mL)	77.72	–
COc1ccc2c(c1)SC(c1ccc(Cl)cc1)C1C(=N2)c2ccccc2C1c1ccccc1 (stereo not given)	2.16	6.9 (≈ 3.23 µg/mL)	1.57	88.85	1.27	53.4 (≈ 25 µg/mL)	1.57	26.7 (≈ 12.5 µg/mL)	26.7 (≈ 12.5 µg/mL)	13.73	56.86	7.23	78.45	1.57	26.7 (≈ 12.5 µg/mL)	88.85	2.16	6.9 (≈ 3.23 µg/mL)	78.45	–
CN[C@@H]1[C@H](O[C@H]2[C@H](O[C@H]3[C@H](O)[C@@H](O)[C@H](N=C(N)N)[C@@H](O)[C@@H]3N=C(N)N)O[C@@H](C)[C@]2(O)C=O)O[C@@H](CO)[C@H](O)[C@H]1O [STREPTOMYCIN]	–	2.6 (≈ 1.51 µg/mL)	–	–	–	10.7 (≈ 6.22 µg/mL)	–	5.3 (≈ 3.08 µg/mL)	10.7 (≈ 6.22 µg/mL)	–	–	–	–	–	–	–	–	–	–	–
COc1ccc(C2Sc3cc(OC)ccc3N=C3c4ccccc4C(c4ccccc4)C32)cc1 (stereo not given)	0.97	108 (≈ 50 µg/mL)	1.27	-74.15	2.17	6.7 (≈ 3.11 µg/mL)	1.57	26.9 (≈ 12.5 µg/mL)	53.9 (≈ 25 µg/mL)	89.17	12.92	6.46	78.28	1.87	13.4 (≈ 6.21 µg/mL)	78.35	1.87	13.4 (≈ 6.21 µg/mL)	89.18	–
COc1ccc(C2Sc3cc(Cl)ccc3N=C3c4ccccc4C(c4ccccc4)C32)cc1 (stereo not given)	2.18	6.6 (≈ 3.09 µg/mL)	1.27	89.33	1.88	13.3 (≈ 6.22 µg/mL)	1.57	26.7 (≈ 12.5 µg/mL)	53.4 (≈ 25 µg/mL)	78.51	13.73	7.23	78.45	1.57	26.7 (≈ 12.5 µg/mL)	78.51	1.88	13.3 (≈ 6.22 µg/mL)	78.45	–
OC(Cn1cncn1)(Cn1cncn1)c1ccc(F)cc1F [FLUCONAZOLE]	–	–	–	–	–	–	–	–	–	–	–	–	–	–	10.1 (≈ 3.09 µg/mL)	–	–	10.1 (≈ 3.09 µg/mL)	–	–

Source: ChEMBL document CHEMBL2203136, “Synthesis, characterization, biological evaluation and QSAR studies of 11-p-substituted phenyl-12-phenyl-11a,12-dihydro-11H-indeno[2,1-c][1,5]benzothiazepines as potential antimicrobial agents” (Eur J Med Chem, 2012)
